# Target: T1, recombinant human ACC2 (Homo sapiens, UniProt O00763)
# T1 construct: a full length Cytomax clone of ACC2 was purchased from Cambridge Bioscience Limited; made in house; host or cells: CHO cells (tetracycline induction, pcDNA5 FRT TO-TOPO); purified on a Softlink Soft Release Avidin column
# Assay: Measurement of human ACC2 inhibition (recombinant hACC2 Transcreener ADP detection FP assay)
# Type: biochemical
# Conditions: not given
# Description: [3] Measurement of human ACC2 inhibition. Human ACC2 inhibition was measured using purified recombinant human ACC2 (hrACC2). […] The ACC2 was expressed in CHO cells by tetracycline induction and harvested in 5 liters of DMEM/F12 with glutamine, biotin, hygromycin and blasticidin with 1 μg/mL tetracycline (Invitrogen, Carlsbad, Calif.). The conditioned medium containing ACC2 was then applied to a Softlink Soft Release Avidin column (Promega, Madison, Wis.) and eluted with 5 mM biotin. […] The purified ACC2 was dialyzed in 50 mM Tris, 200 mM NaCl, 4 mM DTT, 2 mM EDTA, and 5% glycerol. […] The final conditions for the assay were 50 mM HEPES, pH7.5, 5 mM MgCl2, 5 mM tripotassium citrate, 2 mM DTT, 0.5 mg/mL BSA, 30 μM acetyl-CoA, 50 μM ATP, and 8 mM KHCO3. Typically, a 10 μl reaction was run for 1 hour at room temperature, and 10 μl of Transcreener stop and detect buffer was added and incubated for an additional 1 hour.
# T1 sequence (O00763 whole entry): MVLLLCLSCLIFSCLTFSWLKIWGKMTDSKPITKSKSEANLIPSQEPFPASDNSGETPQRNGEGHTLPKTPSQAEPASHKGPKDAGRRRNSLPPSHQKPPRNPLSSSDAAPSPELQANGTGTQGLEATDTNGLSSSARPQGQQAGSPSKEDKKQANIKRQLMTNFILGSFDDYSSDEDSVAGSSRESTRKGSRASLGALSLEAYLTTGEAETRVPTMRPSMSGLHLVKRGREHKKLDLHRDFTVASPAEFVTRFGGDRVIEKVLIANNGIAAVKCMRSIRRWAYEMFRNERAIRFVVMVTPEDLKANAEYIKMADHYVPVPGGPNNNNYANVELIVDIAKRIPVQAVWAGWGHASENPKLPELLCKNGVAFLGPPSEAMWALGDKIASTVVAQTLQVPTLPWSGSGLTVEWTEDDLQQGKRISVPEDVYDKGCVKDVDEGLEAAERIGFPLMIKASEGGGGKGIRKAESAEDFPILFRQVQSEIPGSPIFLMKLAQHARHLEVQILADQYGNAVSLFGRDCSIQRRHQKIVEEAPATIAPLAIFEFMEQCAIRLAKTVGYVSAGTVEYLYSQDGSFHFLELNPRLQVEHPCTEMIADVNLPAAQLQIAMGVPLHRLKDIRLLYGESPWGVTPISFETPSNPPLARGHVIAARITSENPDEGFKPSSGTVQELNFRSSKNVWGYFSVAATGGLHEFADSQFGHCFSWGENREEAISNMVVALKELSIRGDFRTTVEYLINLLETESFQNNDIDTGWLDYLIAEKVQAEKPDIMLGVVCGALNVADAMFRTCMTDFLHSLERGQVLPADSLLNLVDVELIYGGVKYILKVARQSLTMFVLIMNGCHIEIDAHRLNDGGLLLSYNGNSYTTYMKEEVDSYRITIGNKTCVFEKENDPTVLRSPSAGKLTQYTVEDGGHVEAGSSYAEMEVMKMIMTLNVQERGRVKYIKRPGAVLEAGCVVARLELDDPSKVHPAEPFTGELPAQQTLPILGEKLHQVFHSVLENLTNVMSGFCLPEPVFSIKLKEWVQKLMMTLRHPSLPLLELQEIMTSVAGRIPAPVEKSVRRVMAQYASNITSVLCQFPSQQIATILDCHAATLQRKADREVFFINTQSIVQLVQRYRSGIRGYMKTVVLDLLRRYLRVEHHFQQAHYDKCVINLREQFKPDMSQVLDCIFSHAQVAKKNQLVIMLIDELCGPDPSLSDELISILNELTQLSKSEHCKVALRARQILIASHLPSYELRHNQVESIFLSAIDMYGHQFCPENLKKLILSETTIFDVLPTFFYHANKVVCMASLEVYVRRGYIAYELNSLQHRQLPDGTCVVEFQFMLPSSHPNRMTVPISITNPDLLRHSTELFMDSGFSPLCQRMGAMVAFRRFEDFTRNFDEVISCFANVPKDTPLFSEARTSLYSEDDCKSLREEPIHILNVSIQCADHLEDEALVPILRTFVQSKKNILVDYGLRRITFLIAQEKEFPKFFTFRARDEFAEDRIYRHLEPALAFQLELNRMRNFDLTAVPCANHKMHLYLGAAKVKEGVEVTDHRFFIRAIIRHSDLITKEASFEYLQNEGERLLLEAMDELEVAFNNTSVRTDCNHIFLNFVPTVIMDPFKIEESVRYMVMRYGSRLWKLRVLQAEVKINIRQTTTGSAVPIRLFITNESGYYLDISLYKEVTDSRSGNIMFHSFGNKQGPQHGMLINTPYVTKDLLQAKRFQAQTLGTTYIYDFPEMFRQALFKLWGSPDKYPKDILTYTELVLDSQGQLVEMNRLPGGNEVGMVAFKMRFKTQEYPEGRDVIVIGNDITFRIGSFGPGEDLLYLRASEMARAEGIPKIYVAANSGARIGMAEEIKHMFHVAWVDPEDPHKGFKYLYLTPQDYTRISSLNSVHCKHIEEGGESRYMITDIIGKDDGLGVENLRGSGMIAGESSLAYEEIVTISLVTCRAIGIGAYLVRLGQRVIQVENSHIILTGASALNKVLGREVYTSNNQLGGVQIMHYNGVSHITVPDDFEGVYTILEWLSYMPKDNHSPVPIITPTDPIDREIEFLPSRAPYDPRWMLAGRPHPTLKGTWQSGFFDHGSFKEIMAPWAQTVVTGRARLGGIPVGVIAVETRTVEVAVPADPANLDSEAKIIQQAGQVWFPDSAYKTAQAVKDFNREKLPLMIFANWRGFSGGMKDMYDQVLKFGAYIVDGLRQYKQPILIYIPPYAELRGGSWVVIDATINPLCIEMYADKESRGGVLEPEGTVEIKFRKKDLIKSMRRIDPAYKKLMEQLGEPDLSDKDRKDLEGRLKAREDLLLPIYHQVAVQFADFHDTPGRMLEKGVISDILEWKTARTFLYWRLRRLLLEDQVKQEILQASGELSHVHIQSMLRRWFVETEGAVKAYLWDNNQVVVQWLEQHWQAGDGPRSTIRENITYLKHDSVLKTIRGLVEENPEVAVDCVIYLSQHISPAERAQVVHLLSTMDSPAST
row,SMILES,IC50 [nM]
1,CCn1nc2c(c1C)OC1(CCN(C(=O)c3cc(C)c4nc[nH]c4c3)CC1)CC2=O [3.005],79

# Same assay, conditions: recombinant hACC2 transcreener assay; read-out: rhACC2 IC50
row,SMILES,IC50 [nM]
1,Cc1cc(C(=O)N2CCC3(CC2)CC(=O)c2nn(C(C)(C)C)cc2O3)cc2c(Cl)n[nH]c12 [1.105],2
2,CCOc1cc(C(=O)N2CCC3(CC2)CC(=O)c2nn(CC)cc2O3)cc2c(C)n[nH]c12 [1.115],12
3,Cc1cc(C(=O)N2CCC3(CC2)CC(=O)c2nn(CC(C)C)c(C)c2O3)cc2cn[nH]c12 [1.130],13
4,CN1C(=O)CCc2ccc(C(=O)N3CCC4(CC3)CC(=O)c3nn(C(C)(C)C)cc3O4)cc21 [12.003],52
5,CCn1nc2c(c1C)OC1(CCN(C(=O)c3cc(Cl)c4[nH]ncc4c3)CC1)CC2=O [1.061],54
6,CCn1nc2c(c1C)OC1(CCN(C(=O)c3ccc4c(c3)nc(C)n4CC)CC1)CC2=O [8.004],481
7,CCn1nc2c(c1C)OC1(CCN(C(=O)c3ccc4c(C)noc4c3)CC1)CC2=O [23.003],335
8,CCc1nn(C)c2cc(C(=O)N3CCC4(CC3)CC(=O)c3nn(C(C)C)cc3O4)ccc12 [2.007],14
9,CC(C)n1cc2c(n1)C(=O)CC1(CCN(C(=O)c3ccc4sncc4c3)CC1)O2 [7.006],92
10,Cc1noc2cc(C(=O)N3CCC4(CC3)CC(=O)c3nn(C(C)C)cc3O4)ccc12 [23.001],585
11,COc1ccc2ccc(C(=O)N3CCC4(CC3)CC(=O)c3nn(C(C)(C)C)cc3O4)cc2c1 [6.003],2
12,CCc1n[nH]c2c(OC)cc(C(=O)N3CCC4(CC3)CC(=O)c3nn(C5CCCC5)cc3O4)cc12 [1.049],7
13,CCn1nc2c(c1C)OC1(CCN(C(=O)c3ccc4cn[nH]c4c3OC)CC1)CC2=O [2.021],70
14,Cc1n[nH]c2c(C)cc(C(=O)N3CCC4(CC3)CC(=O)c3nn(C(C)C)c(C)c3O4)cc12 [1.013],8
15,CCOc1cc(C(=O)N2CCC3(CC2)CC(=O)c2nn(C(C)(C)C)cc2O3)cc2c(CC)n[nH]c12 [1.117],4
16,Cc1n[nH]c2c(C)cc(C(=O)N3CCC4(CC3)CC(=O)c3nn(C5CC5)c(C)c3O4)cc12 [1.014],9
17,COc1cc(C(=O)N2CCC3(CC2)CC(=O)c2nn(C(C)C)c(C)c2O3)cc2c(C)n[nH]c12 [1.078],4
18,COc1c(C(=O)N2CCC3(CC2)CC(=O)c2nn(C(C)C)cc2O3)ccc2cn[nH]c12 [2.022],47
19,Cc1n[nH]c2c(C)cc(C(=O)N3CCC4(CC3)CC(=O)c3nn(C(C)C)cc3O4)cc12 [1.002],8
20,Cc1cc(C(=O)N2CCC3(CC2)CC(=O)c2nn(C(C)(C)C)cc2O3)cc2[nH]cnc12 [3.008],6
21,Cc1cc(C(=O)N2CCC3(CC2)CC(=O)c2nn(C4CCOC4)c(C)c2O3)cc2cn[nH]c12 (stereo not drawn) [1.041],46
22,Cc1c2c(nn1C)C(=O)CC1(CCN(C(=O)c3ccc4[nH]ncc4c3)CC1)O2 [1.070],713
23,Cc1n[nH]c2c(C)cc(C(=O)N3CCC4(CC3)CC(=O)c3nn(C)cc3O4)cc12 [1.006],80
24,CCn1c(C)nc2cc(C(=O)N3CCC4(CC3)CC(=O)c3nn(C(C)(C)C)cc3O4)ccc21 [8.008],52
25,Cc1cc(C(=O)N2CCC3(CC2)CC(=O)c2nn(C(C)C)cc2O3)cc2c(Cl)n[nH]c12 [1.104],4

row,SMILES,IC50 [nM]
1,CCc1c2c(nn1C)C(=O)CC1(CCN(C(=O)c3cc(C)c4[nH]ncc4c3)CC1)O2 [1.035],367
2,CC(C)(C)n1cc2c(n1)C(=O)CC1(CCN(C(=O)c3ccc4occc4c3)CC1)O2 [17.001],33
3,CCn1nc2c(c1C)OC1(CCN(C(=O)c3cc(F)c4cn[nH]c4c3)CC1)CC2=O [2.016],200
4,CC(C)n1cc2c(n1)C(=O)CC1(CCN(C(=O)c3cc(F)c4cn[nH]c4c3)CC1)O2 [2.015],136
5,Cc1cc(C(=O)N2CCC3(CC2)CC(=O)c2nn(Cc4ccccc4)c(C)c2O3)cc2cn[nH]c12 [1.033],487
6,Cc1n[nH]c2c(C)cc(C(=O)N3CCC4(CC3)CC(=O)c3nn(C5CCC5)c(C)c3O4)cc12 [1.126],3
7,CCn1nc2c(c1C)OC1(CCN(C(=O)c3ccc4oncc4c3)CC1)CC2=O [22.003],> 1000
8,CC(C)(C)n1cc2c(n1)C(=O)CC1(CCN(C(=O)c3ccc4oncc4c3)CC1)O2 [22.002],518
9,CCc1cc(C(=O)N2CCC3(CC2)CC(=O)c2nn(C)cc2O3)cc2cn[nH]c12 [1.059],210
10,CCc1n[nH]c2c(C)cc(C(=O)N3CCC4(CC3)CC(=O)c3nn(C(C)(C)C)cc3O4)cc12 [1.020],3
11,CCn1nc2c(c1C)OC1(CCN(C(=O)c3ccc4cccnc4c3)CC1)CC2=O [16.002],250
12,CC(C)(C)n1cc2c(n1)C(=O)CC1(CCN(C(=O)c3ccc4cn[nH]c4c3)CC1)O2 [2.012],7
13,Cc1cc(C(=O)N2CCC3(CC2)CC(=O)c2nn(C(C)(C)C)cc2O3)cc2c1ncn2C [3.023],15
14,Cc1cc(C(=O)N2CCC3(CC2)CC(=O)c2nn(C(C)(C)C)c(C)c2O3)cc2cn[nH]c12 [1.043],43
15,CCn1nc2c(c1C)OC1(CCN(C(=O)c3ccc4c(c3)NC(=O)CC4)CC1)CC2=O [12.002],36
16,CCn1cc2c(n1)C(=O)CC1(CCN(C(=O)c3cc(Cl)c4[nH]ncc4c3)CC1)O2 [1.062],43
17,CCn1nc2c(c1C)OC1(CCN(C(=O)c3ccc4c(c3)N(C)C(=O)CC4)CC1)CC2=O [12.001],299
18,CC(C)(C)n1cc2c(n1)C(=O)CC1(CCN(C(=O)c3cc(Cl)c4[nH]ncc4c3)CC1)O2 [1.065],8
19,Cc1n[nH]c2c(C)cc(C(=O)N3CCC4(CC3)CC(=O)c3nn(CC(C)C)c(C)c3O4)cc12 [1.129],5
20,Cc1n[nH]c2cc(C(=O)N3CCC4(CC3)CC(=O)c3nn(C(C)C)cc3O4)ccc12 [2.005],33
21,CCc1n[nH]c2c(C)cc(C(=O)N3CCC4(CC3)CC(=O)c3nn(C(C)C)cc3O4)cc12 [1.017],3
22,Cc1cc(C(=O)N2CCC3(CC2)CC(=O)c2nn(C(C)C)cc2O3)cc2cnsc12 [7.009],18
23,Cc1ccc2cc(C(=O)N3CCC4(CC3)CC(=O)c3nn(C(C)(C)C)cc3O4)ccc2c1 [6.005],48
24,CCc1nn(C)c2cc(C(=O)N3CCC4(CC3)CC(=O)c3nn(CC)cc3O4)ccc12 [2.008],81
25,Cc1c2c(nn1C)C(=O)CC1(CCN(C(=O)c3ccc4c(cnn4C)c3)CC1)O2 [1.124],> 3000

row,SMILES,IC50 [nM]
1,Cc1n[nH]c2c(C)cc(C(=O)N3CCC4(CC3)CC(=O)c3nn(C5CCCCC5)cc3O4)cc12 [1.008],21
2,Cc1c2c(nn1C)C(=O)CC1(CCN(C(=O)c3ccc4nn(C)cc4c3)CC1)O2 [25.005],1540
3,CC(C)n1cc2c(n1)C(=O)CC1(CCN(C(=O)c3ccc4cnsc4c3)CC1)O2 [24.002],198
4,CCc1n[nH]c2c(OC)cc(C(=O)N3CCC4(CC3)CC(=O)c3nn(C5CCC5)cc3O4)cc12 [1.050],5
5,CCn1nc2c(c1C)OC1(CCN(C(=O)c3ccc4[nH]nc(C)c4c3)CC1)CC2=O [1.080],36
6,Cc1cc(C(=O)N2CCC3(CC2)CC(=O)c2nn(C4CCC4)cc2O3)cc2c(Cl)n[nH]c12 [1.106],8
7,COc1cc(C(=O)N2CCC3(CC2)CC(=O)c2nn(C(C)C)cc2O3)cc2nc(C)oc12 [9.004],83
8,Cc1n[nH]c2c(C)cc(C(=O)N3CCC4(CC3)CC(=O)c3nn(CC(C)C)cc3O4)cc12 [1.134],10
9,Cc1nc2c(F)cc(C(=O)N3CCC4(CC3)CC(=O)c3nn(C(C)(C)C)cc3O4)cc2[nH]1 [3.019],17
10,CCn1cc2c(n1)C(=O)CC1(CCN(C(=O)c3ccc4[nH]ncc4c3)CC1)O2 [1.069],197
11,Cc1n[nH]c2c(C)cc(C(=O)N3CCC4(CC3)CC(=O)c3nn(C5CC5)cc3O4)cc12 [1.143],7
12,CC(C)(C)n1cc2c(n1)C(=O)CC1(CCN(C(=O)c3cc(F)c4cn[nH]c4c3)CC1)O2 [2.014],28
13,COc1cc(C(=O)N2CCC3(CC2)CC(=O)c2nn(C(C)C)cc2O3)cc2cn[nH]c12 [1.051],17
14,CC(C)(C)n1cc2c(n1)C(=O)CC1(CCN(C(=O)c3cc(Cl)c4cn[nH]c4c3)CC1)O2 [2.009],7
15,CCn1nc2c(c1C)OC1(CCN(C(=O)c3ccc4c(c3)nc(C)n4C)CC1)CC2=O [8.006],266
16,CCn1nc2c(c1C)OC1(CCN(C(=O)c3ccc4cnsc4c3)CC1)CC2=O [24.003],411
17,CCn1cc2c(n1)C(=O)CC1(CCN(C(=O)c3cc(C)c4nc(C)[nH]c4c3)CC1)O2 [3.004],111
18,Cc1cc(C(=O)N2CCC3(CC2)CC(=O)c2nn(C(C)(C)C)cc2O3)cc2cnsc12 [7.007],5
19,Cn1cnc2ccc(C(=O)N3CCC4(CC3)CC(=O)c3nn(C(C)(C)C)cc3O4)cc21 [3.014],21
20,Cc1cc(C(=O)N2CCC3(CC2)CC(=O)c2nn(C(C)(C)C)cc2O3)cc2[nH]ncc12 [2.018],33
21,CC(C)(C)n1cc2c(n1)C(=O)CC1(CCN(C(=O)c3ccc4sncc4c3)CC1)O2 [7.004],23
22,CCn1nc2c(c1C)OC1(CCN(C(=O)c3ccc4nc[nH]c4c3)CC1)CC2=O [3.026],168
23,CCn1cc2c(n1)C(=O)CC1(CCN(C(=O)c3cc(OC)c4[nH]nc(C)c4c3)CC1)O2 [1.079],12
24,CCn1nc2c(c1C)OC1(CCN(C(=O)c3cc(F)c4nc(C)[nH]c4c3)CC1)CC2=O [3.018],105

# From patent US8318762B2, “Pyrazolospiroketone acetyl-CoA carboxylase inhibitors” (Pfizer Inc., priority 2008, dated 2012)
